From the NIST ThermoML archive (doi:10.1021/je9009915)

Conditions: Liquid

FCC(F)(F)F [1,1,1,2-tetrafluoroethane]
Conditions | vapor or sublimation pressure [kPa]
303.45 K | 775.7
308.44 K | 892.2
313.3 K | 1018.8
318.39 K | 1165.4
323.3 K | 1319
328.26 K | 1492.4
333.3 K | 1683.7
338.24 K | 1889.6
343.23 K | 2115.3
